Patent publication US10703733B2, “MCL-1 inhibitors” (Gilead Sciences, Inc., priority 2018, dated 2020)
Like-named read-outs stand apart in the source and are kept apart here.

Experiments:
SKBR3 cells = assay: SKBR3 Cell Viability Assay (CellTiter Glo); type: cell-based; details: CellTiter Glo luminescence, read-out: MCL-1 CV SKBR3 EC50
Summary of the method: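 Viability read as CellTiter Glo luminescence after 72 h of compound exposure at 37° C./5% CO2, using 6,000 SKBR3 cells per well in McCoy 5A with 10% FBS. Percent inhibition scaled between DMSO wells and 10 μM puromycin wells.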

[1] = target: MCL-1/Bim interaction (recombinant human MCL-1 protein, residues 171-327; biotinylated human Bim peptide, residues 51-76) (Homo sapiens (Human), UniProt Q07820); assay: MCL-1/Bim Binding AlphaLISA Assay; details: 0.0625 nM 6xHis-Mcl-1 (171-327), 0.0625 nM biotinylated-Bim peptide
Summary of the method: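 Compounds first sat 1 h with MCL-1 (171-327, 0.0625 nM), followed by 2 h with biotin-Bim 51-76 (0.0625 nM), then sequential 1 h anti-His acceptor and streptavidin donor bead steps; buffer Hepes pH 7.5 with NaCl, Brij 35, DTT, BSA. AlphaScreen signal converted to % inhibition using DMSO (negative) and protein/peptide-free (positive) controls.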

MCL-1/Bim interaction (recombinant human MCL-1 protein, residues 171-327; biotinylated human Bim peptide, residues 51-76), sequence (Q07820 171-327): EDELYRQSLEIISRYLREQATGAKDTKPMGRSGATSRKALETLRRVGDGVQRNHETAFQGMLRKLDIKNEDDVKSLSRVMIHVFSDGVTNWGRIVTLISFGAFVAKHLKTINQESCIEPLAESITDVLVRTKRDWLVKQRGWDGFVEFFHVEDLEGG

EC50 (SKBR3 cells; Homo sapiens, SK-BR-3, 72 h) [nM]	IC50 [1] [nM]	SMILES	EC50 (SKBR3 cells; 72 hours) [nM]
145	0.111	CO[C@H]1/C=C/C[C@H](C)C[S@@](=O)(NC(=O)c2ccn(C3CC3)c2)=NC(=O)c2ccc3c(c2)N(C[C@@H]2CC[C@H]21)C[C@@]1(CCCc2cc(Cl)ccc21)CO3 [Example 156]	–
74.2	0.222	CO[C@H]1/C=C/C[C@H](C)C[S@@](=O)(NC(=O)c2cc3n(c2)C[C@@H](C)OC3)=NC(=O)c2ccc3c(c2)N(C[C@@H]2CC[C@H]21)C[C@@]1(CCCc2cc(Cl)ccc21)CO3 [Example 168]	–
20	0.07	CO[C@H]1/C=C/[C@H](OC)[C@H](C)C[S@@](=O)(NC(=O)c2cc(CN3CCN4CCOC[C@@H]4C3)n(C)c2)=NC(=O)c2ccc3c(c2)N(C[C@@H]2CC[C@H]21)C[C@@]1(CCCc2cc(Cl)ccc21)CO3 [Example 399]	–
118	0.044	COc1nn(C)cc1C(=O)N[S@@]1(=O)=NC(=O)c2ccc3c(c2)N(C[C@@H]2CC[C@H]2[C@@H](OC)/C=C/[C@H](OCC(=O)N(C)C)[C@H](C)C1)C[C@@]1(CCCc2cc(Cl)ccc21)CO3 [Example 401]	–
90.4	0.053	CO[C@H]1/C=C/C[C@H](C)C[S@@](=O)(NC(=O)N2CC(Oc3ccncc3)C2)=NC(=O)c2ccc3c(c2)N(C[C@@H]2CC[C@H]21)C[C@@]1(CCCc2cc(Cl)ccc21)CO3 [Example 275]	–
855	0.5	CO[C@H]1/C=C/CCC[S@@](=O)(NC(=O)CCc2cc(C)nn2C)=NC(=O)c2ccc3c(c2)N(C[C@@H]2CC[C@H]21)C[C@@]1(CCCc2cc(Cl)ccc21)CO3 [Example 89]	–
53.2	0.07	COCc1oc(C(=O)N[S@@]2(=O)=NC(=O)c3ccc4c(c3)N(C[C@@H]3CC[C@H]3[C@@H](OC)/C=C/C[C@H](C)C2)C[C@@]2(CCCc3cc(Cl)ccc32)CO4)cc1C [Example 339]	–
170	0.144	COc1nn(C)cc1C(=O)N[S@@]1(=O)=NC(=O)c2ccc3c(c2)N(C[C@@H]2CC[C@H]2[C@@H](OC)/C=C/[C@H](Oc2cnccn2)[C@H](C)C1)C[C@@]1(CCCc2cc(Cl)ccc21)CO3 [Example 288]	–
55.9	0.185	COC[C@H]1Cn2cc(C(=O)N[S@@]3(=O)=NC(=O)c4ccc5c(c4)N(C[C@@H]4CC[C@H]4[C@@H](OC)/C=C/C[C@H](C)C3)C[C@@]3(CCCc4cc(Cl)ccc43)CO5)cc2CO1 [Example 214]	–
3090	0.6	CO[C@H]1/C=C/CCC[S@@](=O)(NC(=O)CCCn2cccn2)=NC(=O)c2ccc3c(c2)N(C[C@@H]2CC[C@H]21)C[C@@]1(CCCc2cc(Cl)ccc21)CO3 [Example 85]	–
84.7	0.041	CO[C@H]1/C=C/C[C@H](C)C[S@@](=O)(NC(=O)N2CC(n3ccnc3)C2)=NC(=O)c2ccc3c(c2)N(C[C@@H]2CC[C@H]21)C[C@@]1(CCCc2cc(Cl)ccc21)CO3 [Example 348]	–
147	0.131	CO[C@H]1/C=C/C[C@H](C)C[S@@](=O)(NC(=O)N[C@@H]2[C@@H]3COC[C@@H]32)=NC(=O)c2ccc3c(c2)N(C[C@@H]2CC[C@H]21)C[C@@]1(CCCc2cc(Cl)ccc21)CO3 [Example 449]	–
28.6	0.051	C[C@@H]1[C@@H](C)C/C=C/[C@H](O)[C@@H]2CC[C@H]2CN2C[C@@]3(CCCc4cc(Cl)ccc43)COc3ccc(cc32)C(=O)N=[S@]1(=O)NC(=O)c1cc2n(c1)C[C@H](CN1CCOCC1)OC2 [Example 327]	–
1950	0.9	CO[C@H]1/C=C/CCC[S@@](=O)(NC(=O)CCn2ncc3ccccc32)=NC(=O)c2ccc3c(c2)N(C[C@@H]2CC[C@H]21)C[C@@]1(CCCc2cc(Cl)ccc21)CO3 [Example 52]	–
94.5	0.064	CO[C@H]1/C=C/C[C@H](C)C[S@@](=O)(NC(=O)N[C@H]2C[C@@]2(C)OC)=NC(=O)c2ccc3c(c2)N(C[C@@H]2CC[C@H]21)C[C@@]1(CCCc2cc(Cl)ccc21)CO3 (single isomer, unassigned) [Example 313]	–
297	0.147	CO[C@H]1/C=C/C[C@H](C)C[S@@](=O)(NC(=O)c2cnoc2)=NC(=O)c2ccc3c(c2)N(C[C@@H]2CC[C@H]21)C[C@@]1(CCCc2cc(Cl)ccc21)CO3 [Example 409]	–
33.6	0.029	CO[C@H]1/C=C/C[C@H](C)C[S@@](=O)(NC(=O)N[C@@H]2CC23CCOC3)=NC(=O)c2ccc3c(c2)N(C[C@@H]2CC[C@H]21)C[C@@]1(CCCc2cc(Cl)ccc21)CO3 (single isomer, unassigned) [Example 342]	–
416	0.097	CO[C@H]1/C=C/C[C@H](C)C[S@@](=O)(NC(=O)CCc2cnn(C)c2)=NC(=O)c2ccc3c(c2)N(C[C@@H]2CC[C@H]21)C[C@@]1(CCCc2cc(Cl)ccc21)CO3 [Example 142]	–
155	0.126	COc1nn(C)cc1C(=O)N[S@@]1(=O)=NC(=O)c2ccc3c(c2)N(C[C@@H]2CC[C@H]2[C@@H](OC(=O)[C@@H](N)C(C)C)/C=C/C[C@H](C)[C@H]1C)C[C@@]1(CCCc2cc(Cl)ccc21)CO3 [Example 254]	–
101	0.063	CCO[C@H]1/C=C/C[C@H](C)C[S@@](=O)(NC(=O)c2cn(C)nc2OC)=NC(=O)c2ccc3c(c2)N(C[C@@H]2CC[C@H]21)C[C@@]1(CCCc2cc(Cl)ccc21)CO3 [Example 367]	–
176	0.096	CO[C@H]1/C=C/C[C@H](C)C[S@@](=O)(NC(=O)N2CC(OC)(C(F)(F)F)C2)=NC(=O)c2ccc3c(c2)N(C[C@@H]2CC[C@H]21)C[C@@]1(CCCc2cc(Cl)ccc21)CO3 [Example 246]	–
392	0.085	CO[C@H]1/C=C/C[C@H](C)C[S@@](=O)(NC(=O)N2CCn3cccc3C2)=NC(=O)c2ccc3c(c2)N(C[C@@H]2CC[C@H]21)C[C@@]1(CCCc2cc(Cl)ccc21)CO3 [Example 457]	–
6330	10.5	CCN(C)C(=O)N[S@]1(=O)=NC(=O)c2ccc3c(c2)N(C[C@@H]2CC[C@H]2[C@@H](OC)/C=C/CCC1)C[C@@]1(CCCc2cc(Cl)ccc21)CO3 [Example 76]	–
1200	0.659	COC(=O)c1ccn2c1CN(C(=O)N[S@@]1(=O)=NC(=O)c3ccc4c(c3)N(C[C@@H]3CC[C@H]3[C@@H](OC)/C=C/C[C@H](C)C1)C[C@@]1(CCCc3cc(Cl)ccc31)CO4)CC2 [Example 383]	–
1690	1.8	CO[C@H]1/C=C/CCC[S@@](=O)(NC(=O)CC(C)C)=NC(=O)c2ccc3c(c2)N(C[C@@H]2CC[C@H]21)C[C@@]1(CCCc2cc(Cl)ccc21)CO3 [Example 26]	–
–	0.7	CC[C@@H]1CC/C=C/[C@H](OC)[C@@H]2CC[C@H]2CN2C[C@@]3(CCCc4cc(Cl)ccc43)COc3ccc(cc32)C(=O)N=S1(=O)NC(=O)CCc1ccnn1C (single isomer, unassigned) [Example 71]	1390
161	0.162	COC[C@@H]1CCN(C(=O)N[S@@]2(=O)=NC(=O)c3ccc4c(c3)N(C[C@@H]3CC[C@H]3[C@@H](OC)/C=C/C[C@H](C)C2)C[C@@]2(CCCc3cc(Cl)ccc32)CO4)C1 [Example 256]	–

SMILES	EC50 (SKBR3 cells; Homo sapiens, SK-BR-3, 72 h) [nM]	IC50 [1] [nM]	EC50 (SKBR3 cells; 72 hours) [nM]
CO[C@H]1/C=C/C[C@H](C)C[S@@](=O)(NC(=O)c2cc3n(c2F)CCCC3)=NC(=O)c2ccc3c(c2)N(C[C@@H]2CC[C@H]21)C[C@@]1(CCCc2cc(Cl)ccc21)CO3 [Example 174]	–	0.153	103
